Numbers after ± are expanded uncertainties.
Assay: excess molar enthalpy (molar enthalpy of mixing); xn = mol fraction of the nth substance listed
Conditions: 101 kPa, Liquid, Isoperibol calorimetry

CCCCCCO [hexan-1-ol] + CC#N
Conditions | excess molar enthalpy [kcal/mol]
288.15 K, x1 = 0.0402 | 0.105 ± 0.00143
288.15 K, x1 = 0.0809 | 0.188 ± 0.00191
288.15 K, x1 = 0.1219 | 0.2555 ± 0.00239
288.15 K, x1 = 0.1629 | 0.3074 ± 0.00263
288.15 K, x1 = 0.2038 | 0.3499 ± 0.00287
288.15 K, x1 = 0.2445 | 0.386 ± 0.00311
288.15 K, x1 = 0.2846 | 0.4183 ± 0.00335
288.15 K, x1 = 0.3241 | 0.4434 ± 0.00359
288.15 K, x1 = 0.3628 | 0.4663 ± 0.00382
288.15 K, x1 = 0.4145 | 0.4969 ± 0.00406
288.15 K, x1 = 0.4465 | 0.5029 ± 0.00406
288.15 K, x1 = 0.4819 | 0.5 ± 0.00406
288.15 K, x1 = 0.5214 | 0.4912 ± 0.00406
288.15 K, x1 = 0.5657 | 0.4775 ± 0.00382
288.15 K, x1 = 0.6156 | 0.4565 ± 0.00382
288.15 K, x1 = 0.6722 | 0.425 ± 0.00359
288.15 K, x1 = 0.7368 | 0.3812 ± 0.00335
288.15 K, x1 = 0.8114 | 0.3083 ± 0.00287
288.15 K, x1 = 0.898 | 0.191 ± 0.00215
298.15 K, x1 = 0.0405 | 0.121 ± 0.00167
298.15 K, x1 = 0.0815 | 0.2278 ± 0.00215
298.15 K, x1 = 0.1226 | 0.3093 ± 0.00263
298.15 K, x1 = 0.1639 | 0.3812 ± 0.00335
298.15 K, x1 = 0.205 | 0.4328 ± 0.00359
298.15 K, x1 = 0.2457 | 0.4742 ± 0.00382
298.15 K, x1 = 0.286 | 0.5062 ± 0.00406
298.15 K, x1 = 0.3257 | 0.5239 ± 0.0043
298.15 K, x1 = 0.3849 | 0.5428 ± 0.0043
298.15 K, x1 = 0.4227 | 0.554 ± 0.00454
298.15 K, x1 = 0.4554 | 0.5566 ± 0.00454
298.15 K, x1 = 0.4916 | 0.5557 ± 0.00454
298.15 K, x1 = 0.5321 | 0.5492 ± 0.00454
298.15 K, x1 = 0.5774 | 0.5359 ± 0.0043
298.15 K, x1 = 0.6286 | 0.5057 ± 0.00406
298.15 K, x1 = 0.6866 | 0.4701 ± 0.00382
298.15 K, x1 = 0.753 | 0.4089 ± 0.00335
298.15 K, x1 = 0.8295 | 0.309 ± 0.00263
298.15 K, x1 = 0.9187 | 0.165 ± 0.00167
298.15 K, x1 = 0.958 | 0.0932 ± 0.00143
313.15 K, x1 = 0.0408 | 0.132 ± 0.00191
313.15 K, x1 = 0.0819 | 0.238 ± 0.00239
313.15 K, x1 = 0.1233 | 0.3184 ± 0.00287
313.15 K, x1 = 0.1648 | 0.3815 ± 0.00335
313.15 K, x1 = 0.206 | 0.4398 ± 0.00359
313.15 K, x1 = 0.247 | 0.4861 ± 0.00406
313.15 K, x1 = 0.2874 | 0.5151 ± 0.0043
313.15 K, x1 = 0.3271 | 0.5387 ± 0.0043
313.15 K, x1 = 0.3888 | 0.5705 ± 0.00454
313.15 K, x1 = 0.4178 | 0.5782 ± 0.00478
313.15 K, x1 = 0.4498 | 0.5834 ± 0.00478
313.15 K, x1 = 0.4853 | 0.5841 ± 0.00478
313.15 K, x1 = 0.5248 | 0.5772 ± 0.00454
313.15 K, x1 = 0.569 | 0.5595 ± 0.00454
313.15 K, x1 = 0.6188 | 0.5311 ± 0.0043
313.15 K, x1 = 0.6752 | 0.4883 ± 0.00406
313.15 K, x1 = 0.7395 | 0.435 ± 0.00359
313.15 K, x1 = 0.8134 | 0.3535 ± 0.00311
313.15 K, x1 = 0.8993 | 0.2239 ± 0.00215
323.15 K, x1 = 0.041 | 0.136 ± 0.00191
323.15 K, x1 = 0.0823 | 0.2452 ± 0.00239
323.15 K, x1 = 0.1239 | 0.3296 ± 0.00287
323.15 K, x1 = 0.1655 | 0.4001 ± 0.00335
323.15 K, x1 = 0.2069 | 0.4541 ± 0.00382
323.15 K, x1 = 0.2479 | 0.505 ± 0.00406
323.15 K, x1 = 0.2884 | 0.5461 ± 0.00454
323.15 K, x1 = 0.3282 | 0.575 ± 0.00454
323.15 K, x1 = 0.39 | 0.626 ± 0.00502
323.15 K, x1 = 0.419 | 0.6384 ± 0.00502
323.15 K, x1 = 0.451 | 0.6417 ± 0.00526
323.15 K, x1 = 0.4865 | 0.6353 ± 0.00502
323.15 K, x1 = 0.526 | 0.6231 ± 0.00502
323.15 K, x1 = 0.5702 | 0.6001 ± 0.00478
323.15 K, x1 = 0.6199 | 0.5698 ± 0.00454
323.15 K, x1 = 0.6762 | 0.5206 ± 0.0043
323.15 K, x1 = 0.7404 | 0.4529 ± 0.00382
323.15 K, x1 = 0.8142 | 0.3561 ± 0.00311
323.15 K, x1 = 0.8997 | 0.223 ± 0.00215

CCCCCO [pentan-1-ol] + CC#N
Conditions | excess molar enthalpy [kcal/mol]
288.15 K, x1 = 0.0461 | 0.107 ± 0.00143
288.15 K, x1 = 0.0922 | 0.1965 ± 0.00191
288.15 K, x1 = 0.1379 | 0.2691 ± 0.00239
288.15 K, x1 = 0.1833 | 0.3207 ± 0.00263
288.15 K, x1 = 0.2279 | 0.364 ± 0.00311
288.15 K, x1 = 0.2717 | 0.3903 ± 0.00335
288.15 K, x1 = 0.3144 | 0.4302 ± 0.00359
288.15 K, x1 = 0.356 | 0.446 ± 0.00382
288.15 K, x1 = 0.3963 | 0.4555 ± 0.00382
288.15 K, x1 = 0.4494 | 0.4615 ± 0.00382
288.15 K, x1 = 0.4818 | 0.4632 ± 0.00382
288.15 K, x1 = 0.5174 | 0.462 ± 0.00382
288.15 K, x1 = 0.5567 | 0.4548 ± 0.00382
288.15 K, x1 = 0.6002 | 0.4412 ± 0.00359
288.15 K, x1 = 0.6486 | 0.4187 ± 0.00335
288.15 K, x1 = 0.7027 | 0.3879 ± 0.00311
288.15 K, x1 = 0.7635 | 0.3396 ± 0.00287
288.15 K, x1 = 0.8322 | 0.2734 ± 0.00239
288.15 K, x1 = 0.9103 | 0.162 ± 0.00167
298.15 K, x1 = 0.0464 | 0.121 ± 0.00167
298.15 K, x1 = 0.0927 | 0.2151 ± 0.00215
298.15 K, x1 = 0.1386 | 0.2909 ± 0.00263
298.15 K, x1 = 0.1841 | 0.3511 ± 0.00287
298.15 K, x1 = 0.2289 | 0.3958 ± 0.00335
298.15 K, x1 = 0.2728 | 0.4293 ± 0.00359
298.15 K, x1 = 0.3157 | 0.4534 ± 0.00382
298.15 K, x1 = 0.3574 | 0.4699 ± 0.00382
298.15 K, x1 = 0.4188 | 0.4794 ± 0.00382
298.15 K, x1 = 0.4833 | 0.4821 ± 0.00382
298.15 K, x1 = 0.5189 | 0.4773 ± 0.00382
298.15 K, x1 = 0.5582 | 0.4663 ± 0.00382
298.15 K, x1 = 0.6016 | 0.45 ± 0.00359
298.15 K, x1 = 0.65 | 0.4302 ± 0.00359
298.15 K, x1 = 0.7039 | 0.3977 ± 0.00335
298.15 K, x1 = 0.7645 | 0.3468 ± 0.00287
298.15 K, x1 = 0.833 | 0.2758 ± 0.00239
298.15 K, x1 = 0.9108 | 0.1673 ± 0.00167
313.15 K, x1 = 0.0467 | 0.125 ± 0.00167
313.15 K, x1 = 0.0933 | 0.2268 ± 0.00215
313.15 K, x1 = 0.1395 | 0.3064 ± 0.00263
313.15 K, x1 = 0.1852 | 0.3662 ± 0.00311
313.15 K, x1 = 0.2302 | 0.4109 ± 0.00335
313.15 K, x1 = 0.2742 | 0.4455 ± 0.00359
313.15 K, x1 = 0.3172 | 0.4708 ± 0.00382
313.15 K, x1 = 0.359 | 0.4897 ± 0.00406
313.15 K, x1 = 0.4229 | 0.5093 ± 0.00406
313.15 K, x1 = 0.4526 | 0.5127 ± 0.00406
313.15 K, x1 = 0.485 | 0.5141 ± 0.00406
313.15 K, x1 = 0.5207 | 0.5076 ± 0.00406
313.15 K, x1 = 0.5599 | 0.4957 ± 0.00406
313.15 K, x1 = 0.6033 | 0.4783 ± 0.00382
313.15 K, x1 = 0.6516 | 0.4548 ± 0.00382
313.15 K, x1 = 0.7054 | 0.4202 ± 0.00335
313.15 K, x1 = 0.7658 | 0.3728 ± 0.00311
313.15 K, x1 = 0.834 | 0.2966 ± 0.00263
313.15 K, x1 = 0.9114 | 0.185 ± 0.00191
323.15 K, x1 = 0.0469 | 0.127 ± 0.00167
323.15 K, x1 = 0.0937 | 0.233 ± 0.00239
323.15 K, x1 = 0.1401 | 0.3143 ± 0.00263
323.15 K, x1 = 0.1859 | 0.3721 ± 0.00311
323.15 K, x1 = 0.231 | 0.4204 ± 0.00359
323.15 K, x1 = 0.2752 | 0.4579 ± 0.00382
323.15 K, x1 = 0.3183 | 0.483 ± 0.00382
323.15 K, x1 = 0.3601 | 0.5098 ± 0.00406
323.15 K, x1 = 0.4006 | 0.5244 ± 0.0043
323.15 K, x1 = 0.4538 | 0.5509 ± 0.00454
323.15 K, x1 = 0.4863 | 0.5562 ± 0.00454
323.15 K, x1 = 0.5219 | 0.5504 ± 0.00454
323.15 K, x1 = 0.5611 | 0.5361 ± 0.0043
323.15 K, x1 = 0.6045 | 0.5122 ± 0.00406
323.15 K, x1 = 0.6527 | 0.4897 ± 0.00406
323.15 K, x1 = 0.7064 | 0.4529 ± 0.00382
323.15 K, x1 = 0.7667 | 0.4101 ± 0.00335
323.15 K, x1 = 0.8346 | 0.3351 ± 0.00287
323.15 K, x1 = 0.9118 | 0.2165 ± 0.00215

Reference: the NIST ThermoML archive (doi:10.1016/j.tca.2006.08.007)
